Values joined by “and” are separate entries in the source; they are usually repeats but may differ in a detail not shown here. Equal entries are not always repeated.
Tested on: MCF7 complex spheroid growth, % test/control
Test: Anticancer human tumor MCF7 cell line growth inhibition [Asc];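 further: spheroids exposed to compounds for 7 days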;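 on viability, T/C: 100% = DMSO vehicle control wells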
Conditions: for viability, T/C: stronger effect = lower value
Summary of the method: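 Spheroid model: tumor line + HUVEC + hMSC. Single agents and combinations; top conc. at/near clinical Cmax (10 microM if undetermined), half-log dilutions. DMSO stocks at 800-fold test concentration.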

## Cn1ncnc1[C@H]1c2n[nH]c(=O)c3cc(F)cc(c23)N[C@@H]1c1ccc(F)cc1
Compound 0.000316 µM
  viability, T/C: 95.7% and 82.9% and 96.4%
Compound 0.001 µM
  viability, T/C: 97.3% and 106% and 99.9%
Compound 0.00316 µM
  viability, T/C: 97.1% and 107% and 101%
Compound 0.01 µM
  viability, T/C: 63.8% and 84.2% and 67.2%
Compound 0.0316 µM
  viability, T/C: 60% and 87.7% and 88.1%
Compound 0.1 µM
  viability, T/C: 48.8% and 84.9% and 75.1%
Curve of compound
  IC50: > 100 nM

## CNC(C)C(=O)NC1CN(S(=O)(=O)c2cccc(S(=O)(=O)N3CCC4CCC(C(=O)NC(c5ccccc5)c5ccccc5)N4C(=O)C(NC(=O)C(C)NC)C3)c2)CCC2CCC(C(=O)NC(c3ccccc3)c3ccccc3)N2C1=O (stereo not drawn) + Cc1c(S(C)(=O)=O)c(-c2cc(F)cc(N3CCN(c4ccc(NS(=O)(=O)c5ccc(NC(CCN6CCC(C(=O)OCCCP(=O)(O)O)CC6)CSc6ccccc6)c(S(=O)(=O)C(F)(F)F)c5)cc4)CC3)c2)c(-c2ccc(Cl)cc2)n1C(C)C
Curve of first compound, second compound 0.0316 µM
  IC50: 5.15 nM
Curve of first compound, second compound 0.1 µM
  IC50: 6.44 nM
Curve of first compound, second compound 0.316 µM
  IC50: 4.92 nM
Curve of first compound, second compound 1 µM
  IC50: 5.56 nM
Curve of first compound, second compound 3.16 µM
  IC50: < 3.16 nM
Curve of first compound, second compound 10 µM
  IC50: 4.17 nM
Second compound 0.0316 µM, first compound 0.00316 µM
  viability, T/C: 73.3%
Second compound 0.0316 µM, first compound 0.01 µM
  viability, T/C: 17.6%
Second compound 0.0316 µM, first compound 0.0316 µM
  viability, T/C: 15.6%
Second compound 0.0316 µM, first compound 0.1 µM
  viability, T/C: 18.6%
Second compound 0.0316 µM, first compound 0.316 µM
  viability, T/C: 16.3%
Second compound 0.0316 µM, first compound 1 µM
  viability, T/C: 20.2%
Second compound 0.1 µM, first compound 0.00316 µM
  viability, T/C: 96.3%
Second compound 0.1 µM, first compound 0.01 µM
  viability, T/C: 21.4%
Second compound 0.1 µM, first compound 0.0316 µM
  viability, T/C: 17.3%
Second compound 0.1 µM, first compound 0.1 µM
  viability, T/C: 17%
Second compound 0.1 µM, first compound 0.316 µM
  viability, T/C: 17.7%
Second compound 0.1 µM, first compound 1 µM
  viability, T/C: 16.9%
Second compound 0.316 µM, first compound 0.00316 µM
  viability, T/C: 65.9%
Second compound 0.316 µM, first compound 0.01 µM
  viability, T/C: 25.1%
Second compound 0.316 µM, first compound 0.0316 µM
  viability, T/C: 16.4%
Second compound 0.316 µM, first compound 0.1 µM
  viability, T/C: 19%
Second compound 0.316 µM, first compound 0.316 µM
  viability, T/C: 19.2%
Second compound 0.316 µM, first compound 1 µM
  viability, T/C: 18.8%
Second compound 1 µM, first compound 0.00316 µM
  viability, T/C: 78.9%
Second compound 1 µM, first compound 0.01 µM
  viability, T/C: 20%
Second compound 1 µM, first compound 0.0316 µM
  viability, T/C: 18.6%
Second compound 1 µM, first compound 0.1 µM
  viability, T/C: 19.8%
Second compound 1 µM, first compound 0.316 µM
  viability, T/C: 17.4%
Second compound 1 µM, first compound 1 µM
  viability, T/C: 15.9%
Second compound 3.16 µM, first compound 0.00316 µM
  viability, T/C: 37%
Second compound 3.16 µM, first compound 0.01 µM
  viability, T/C: 19.1%
Second compound 3.16 µM, first compound 0.0316 µM
  viability, T/C: 18.3%
Second compound 3.16 µM, first compound 0.1 µM
  viability, T/C: 22.8%
Second compound 3.16 µM, first compound 0.316 µM
  viability, T/C: 20.4%
Second compound 3.16 µM, first compound 1 µM
  viability, T/C: 20.1%
Second compound 10 µM, first compound 0.00316 µM
  viability, T/C: 56%
Second compound 10 µM, first compound 0.01 µM
  viability, T/C: 31.6%
Second compound 10 µM, first compound 0.0316 µM
  viability, T/C: 23.8%
Second compound 10 µM, first compound 0.1 µM
  viability, T/C: 21.7%
Second compound 10 µM, first compound 0.316 µM
  viability, T/C: 21.5%
Second compound 10 µM, first compound 1 µM
  viability, T/C: 24%

## C=CC(=O)N1CCN(c2nc(=O)n(-c3c(C)ccnc3C(C)C)c3nc(-c4c(O)cccc4F)c(F)cc23)C(C)C1 (stereo not drawn) + CCN1C(C(=O)NC23CCC(C(=O)O)(CC2)CC3)C(c2cccc(Cl)c2F)C2(C(=O)Nc3cc(Cl)ccc32)C12CCCCC2
Curve of first compound, second compound 0.00949 µM
  IC50: > 10000 nM
Curve of first compound, second compound 0.03 µM
  IC50: > 10000 nM
Curve of first compound, second compound 0.0949 µM
  IC50: 585 nM
Curve of first compound, second compound 0.3 µM
  IC50: < 31.6 nM
Curve of first compound, second compound 0.949 µM
  IC50: < 31.6 nM
Curve of first compound, second compound 3 µM
  IC50: < 31.6 nM
Second compound 0.00949 µM, first compound 0.0316 µM
  viability, T/C: 109%
Second compound 0.00949 µM, first compound 0.1 µM
  viability, T/C: 104%
Second compound 0.00949 µM, first compound 0.316 µM
  viability, T/C: 113%
Second compound 0.00949 µM, first compound 1 µM
  viability, T/C: 107%
Second compound 0.00949 µM, first compound 3.16 µM
  viability, T/C: 113%
Second compound 0.00949 µM, first compound 10 µM
  viability, T/C: 91.1%
Second compound 0.03 µM, first compound 0.0316 µM
  viability, T/C: 96.1%
Second compound 0.03 µM, first compound 0.1 µM
  viability, T/C: 93.7%
Second compound 0.03 µM, first compound 0.316 µM
  viability, T/C: 83.3%
Second compound 0.03 µM, first compound 1 µM
  viability, T/C: 68.2%
Second compound 0.03 µM, first compound 3.16 µM
  viability, T/C: 82.9%
Second compound 0.03 µM, first compound 10 µM
  viability, T/C: 59.8%
Second compound 0.0949 µM, first compound 0.0316 µM
  viability, T/C: 53.9%
Second compound 0.0949 µM, first compound 0.1 µM
  viability, T/C: 56.4%
Second compound 0.0949 µM, first compound 0.316 µM
  viability, T/C: 55.3%
Second compound 0.0949 µM, first compound 1 µM
  viability, T/C: 42.5%
Second compound 0.0949 µM, first compound 3.16 µM
  viability, T/C: 45.7%
Second compound 0.0949 µM, first compound 10 µM
  viability, T/C: 35.5%
Second compound 0.3 µM, first compound 0.0316 µM
  viability, T/C: 34.8%
Second compound 0.3 µM, first compound 0.1 µM
  viability, T/C: 33.5%
Second compound 0.3 µM, first compound 0.316 µM
  viability, T/C: 35.6%
Second compound 0.3 µM, first compound 1 µM
  viability, T/C: 33%
Second compound 0.3 µM, first compound 3.16 µM
  viability, T/C: 32%
Second compound 0.3 µM, first compound 10 µM
  viability, T/C: 32.6%
Second compound 0.949 µM, first compound 0.0316 µM
  viability, T/C: 24.5%
Second compound 0.949 µM, first compound 0.1 µM
  viability, T/C: 23.1%
Second compound 0.949 µM, first compound 0.316 µM
  viability, T/C: 20.7%
Second compound 0.949 µM, first compound 1 µM
  viability, T/C: 25.2%
Second compound 0.949 µM, first compound 3.16 µM
  viability, T/C: 32.1%
Second compound 0.949 µM, first compound 10 µM
  viability, T/C: 21.4%
Second compound 3 µM, first compound 0.0316 µM
  viability, T/C: 16.6%
Second compound 3 µM, first compound 0.1 µM
  viability, T/C: 17.1%
Second compound 3 µM, first compound 0.316 µM
  viability, T/C: 19.1%
Second compound 3 µM, first compound 1 µM
  viability, T/C: 18.3%
Second compound 3 µM, first compound 3.16 µM
  viability, T/C: 22.1%
Second compound 3 µM, first compound 10 µM
  viability, T/C: 24.2%

## C=C(F)C(=O)N1CCN(c2nc(OCC3CCCN3C)nc3c2CCN(c2cccc4cccc(Cl)c24)C3)CC1CC#N (stereo not drawn)
Compound 0.0316 µM
  viability, T/C: 82.4% and 98.6% and 109%
Compound 0.1 µM
  viability, T/C: 92.8% and 99.8% and 107%
Compound 0.316 µM
  viability, T/C: 90.7% and 97.9% and 95.7%
Compound 1 µM
  viability, T/C: 75.4% and 92.3% and 89.9%
Compound 3.16 µM
  viability, T/C: 31% and 80% and 72.3%
Compound 10 µM
  viability, T/C: 0.38% and 0.28% and 0.27%
Curve of compound
  IC50: 1940 nM and 4850 nM and 4360 nM
